# In patent publication US6541492B1, “Thiazole derivatives as PPAR gamma ligands” (SmithKline Beecham Corporation, priority 1999, dated 2003):
# How the values were obtained:
# C57BL/KsJ db/db mice = experiment: In vivo assay in db/db mice; conditions: male db/db mice, 50 mg/kg oral once daily, mean ± standard error
# Method: Age and weight matched male C57BL/KsJ db/db mice (Jackson Labs, Bar Harbor, Me.) were housed 5 animals/cage at 72° F. and 50% relative humidity with a 12 h light and dark cycle, and fed chow diet (NIH R&M/Auto 6F-Ovals 5K67, PMI Feeds® Inc., Richmond, Ind.). Animals starting at 6 weeks of age were orally gavaged once daily (8:00-9:00 AM) with TPGS/PG (25/75) or 50 mg/kg the compound of Example 4 in TPGS/PG (25/75). After 2 weeks of dosing, the animals were anesthetized with isofluorane, blood was drawn by cardiac puncture, and non-fasting measurements of glucose, insulin, and glycosylated hemoglobin (GHB) were obtained. Blood glucose was determined using an automated chemistry analyzer (Technicon Axon). GHB measurements were performed using a Columnmate Analyzer (Helena Instrument). Insulin concentrations in serum were measured by chemiluminescence using an Origen Analyzer (Igen Inc.). Body weights were recorded at the beginning and end of the study. All data was calculated as the mean and standard error from experiments performed on ≧9 animals per treatment group.
# [1] = test system: C3H10T1/2 clone 8 murine fibroblasts; experiment: Osteoblast differentiation assay (alkaline phosphatase activity); assay type: cell-based
# Method: C3H10T1/2 clone 8 murine fibroblasts (American Type Culture Collection) below passage 22 were maintained in Dulbecco's modified Eagle's medium (Life Technologies, Inc.) supplemented with 10% fetal calf serum and 100 units/mL penicillin G and 100 microgram/mL streptomycin. One day after passage into 96-well microtiter plates (12.5×10^3 cells/cm^2), the cells were treated with 625 nanomolar all-trans retinoic acid, 1 micromolar rosiglitazone and 1 micromolar insulin (Sigma, St. Louis, Mo.). Vehicle or test compounds, which had been solublized to 10 mM in DMSO and then serially diluted from 2e-5 M to 4e-8 M into medium, were added. After 7 days, alkaline phosphatase activity, a surrogate measure for osteogenesis, was determined using Sigma-Fast pNPP substrate (N-2770) according to the manufacturer's specifications (Sigma, St. Louis, Mo.) (see Paulik, M. A. and Lenhard, J. M., Cell Tissue Res., (1997), Vol. 290, pp 79-87). The substrate (50 microliters/well) was incubated with the cells at 37° C. for 10 min and the absorbance read at 405 nm. The % maximum stimulation of alkaline phosphatase activity was calculated relative to cells treated with 10 micromolar all-trans retinoic acid.
smiles,measurement,setting,value
"CCCCCC[C@@H]1S[C@@H](CC(=O)N(CCCC)CCCC)C(=O)N1CCCCc1ccc(C(=O)O)cc1 (relative stereo) [Example 4, (2S*,5S*)-4-(4-(4-Carboxyphenyl)butyl)-2-hexyl-4-oxo-5-thiazolidine N,N-Dibutylacetamide]",GBH,"C57BL/KsJ db/db mice; glycosylated hemoglobin, 2 weeks",6.6 ± 0.3%
same,Glucose,"C57BL/KsJ db/db mice; 2 weeks, non-fasting blood",380 ± 30 mg/dL
same,Body Weight Change,C57BL/KsJ db/db mice; beginning to end of 2 week study,1.1 ± 0.5 g
same,% Stimulation,[1]; % maximum stimulation of alkaline phosphatase activity relative to cells treated with 10 micromolar all-trans retinoic acid,71%
same,pEC50,"[1]; alkaline phosphatase activity after 7 days, with 625 nanomolar all-trans retinoic acid, 1 micromolar rosiglitazone, 1 micromolar insulin",5.7
